The values that follow come from patent publication US5324725A, “7-fused 2-(piperazinoalkyl) indole derivatives, intermediates and compositions thereof” (Kali-Chemie Pharma GmbH, priority 1991, dated 1994).

Usually inhibition stands for how much of the control response was suppressed. As a reminder, the inhibition in vivo is the drop in the measured response relative to a control, in per cent. Read a high inhibition in vivo as strong suppression.

Data set [1] has as its system P.A.F.-induced aggregation of platelets from rabbit blood. As to the kind of experiment: Anti-P.A.F. effect in vitro: inhibition of P.A.F.-induced platelet aggregation. It counts as cell-based, rabbit (New Zealand hybrids). To be noted: Oryctolagus cuniculus, Platelet, test substance concentration 10^-5 mol/l. The text has this: 4. Determination of anti-P.A.F. effect in vitro.
Platelet-activating factor (P.A.F.) is a phospholipid mediator which has several effects. The activation of platelet aggregation leads to the induction of protracted broncho contractions and hyperreactivity of the airways.
The effects of the test substances on platelet aggregation induced by adding P.A.F. to a platelet suspension obtained from rabbit blood was investigated by the method described by Mikashima et al. (Jap. J. Pharmacol. 44 (1987) 387-391).
A suspension of platelets originating from rabbit blood was used which contained 4×10^9 platelets/ml in a modified Tyrode buffer solution adjusted to pH 7.4. Tyrode solution is an aqueous solution containing 136.9 mmol of NaCl, 2.68 mmol of KCl, 2.31 mmol of CaCl2, 1.0 mmol of MgCl2, 11.9 mmol of NaHCO3, 1.45 mmol of NaH2 PO4 and 5.55 mmol of glucose per liter. This solution was modified by adding 1.3 mM/l of CaCl2 and 2.5 g/l of gelatin. The platelets were obtained from 10 ml blood samples from each of three rabbits (New Zealand hybrids, body weight 3-4 kg). For this, the blood samples were treated with ethylenediaminetetraacetic acid and washed by the method of Artley et al. (Brit. J. Hamatol. 19 (1970), 7-17). A platelet-rich plasma was then initially separated by centrifugation (20 minutes at 400×g). The platelets were separated from the plasma by centrifuging again for 15 minutes at 1400×g. After centrifuging, the platelets remaining as a sediment were resuspended in a calcium-free Tyrode buffer solution. 0.4 mmol of lysine acetylsalicylate were then added and after 15 minutes the blood platelets were sedimented again. The sediment was resuspended in the abovementioned modified Tyrode buffer solution, and the number of platelets in the resulting suspension was adjusted to the desired content.
A 40×10^-9 molar P.A.F. solution was used as the reagent. This solution was prepared from a 1.8×10^-3 molar stock solution in chloroform. For this, a 10μl sample of the stock solution was evaporated to dryness and redissolved in 180 μl of the modified Tyrode solution, to which 0.25% of dilapidated bovine serum albumin had been added. 10^-5 molar working solutions were then prepared from this and stored frozen. Samples of these solutions were appropriately diluted for the tests.
To carry out the tests, 50 μl of the platelet solution and 10 μl of a 40×10^-5 molar solution of the compound to be investigated were added to 330 μl of the modified Tyrode buffer solution with stirring (1000 rpm) in an aggregation tube provided with a small magnetic stirrer. This corresponds to a final test substance concentration of 10^-5 mol/l. After a preincubation time of 90seconds, 10 μl of the P.A.F. preparation were added. The aggregation occurring in the aggregation tubes was measured for 4-5 minutes using a computerized aggregometer.
The aggregation occurring in the test tubes containing only platelet suspension was rated as 0%. The aggregation occurring in test tubes containing platelet suspension and P.A.F. preparation was rated as 100%. The aggregation which still occurred in the presence of the test substances (i.e. during inhibition of the P.A.F.-induced platelet aggregation increase) was measured, and the resulting aggregation inhibition is calculated from this in %.

Data set [2] concerns Passive cutaneous anaphylaxis (P.C.A.). Put plainly: Inhibition of passive cutaneous anaphylaxis (P.C.A.). It is filed as in vivo, rat (Sprague-Dawley). To be noted: Rattus norvegicus, 1 h; rats, 2 × 10^-5 mol/kg p.o., one hour before ovalbumin challenge. On the procedure:
(§1) 1. Determination of the inhibition of passive cutaneous anaphylaxis (P.C.A.) and of the anaphylactoid cutaneous reaction induced by histamine.
The P.C.A. reaction was carried out according to the methods described by Goose et al. (J.N. Immunology 16 (1969), 749) and by Martin et al (Arch. Pharmacol. 316 (1981), 186}.
The IgE-rich ovalbumin antiserum used in the test was obtained from immunized Brown-Norway rats. For immunization, the rats were given an i.p. injection of a mixture of 100 μg of ovalbumin with a Bordetella pertussis suspension (Vaxicoq®, Manufacturer: Institut Merieux, containing 5×10^9 organisms and 1.25 mg of Al(OH)3). After 20 days, the animals received a further i.p. injection of a solution of 10 μg of ovaIbumin in 0.5 ml of physiological saline solution for reimmunisation. After a further four days, the animals were bled, and the blood was centrifuged The antiserum obtained in this way was stored at -20° C. until use.
(§2) The determination of the inhibition of passive cutaneous anaphylaxis and the anaphylactoid cutaneous reaction induced by histamine was carried out as follows:
Sprague-Dawley rats having a body weight of 150-180 g were injected intradermally in one flank with 50 μl of a 1:75 dilution of the IgE-rich ovalbumin antiserum in physiological sodium chloride solution for passive sensitization to ovalbumin.
24 hours after sensitization a solution of 8.25 mg/kg of ovalbumin and 26.4 mg/kg of a blue dye (Evans' Blue) was administered i.v. to the rats according to Martin et al. to induce passive cutaneous anaphylaxis. The ovalbumin challenge caused a local anaphylactic reaction at the site at which the antiserum had been injected.
(§3) On the test days, the test substances were dissolved in distilled water which contained 1% by volume of dimethylformamide and 1% by volume of Tween®20 (polyoxyethylene(20) sorbitan monolaurate). One hour before the challenging ovalbumin administration, each animal received 2×10^-5 mol/kg of test substance administered orally in 0.5 ml of solution. A control group received only the solvent for comparison.
(§4) The oedematous anaphylactic (P.C.A.) and anaphylactoid (histamine-induced) reactions caused by the challenging i.v. ovalbumin injection, which are manifested by oedema formation, swelling and exudation of blue dye, were evaluated 30 minutes after challenge by the i.v. ovalbumin injection. This was done by visual determination of the extent to which the blue dye emerges at the sites of oedema formation. The percentage inhibition of anaphylactic and anaphylactoid reactions caused by the test substances was determined in comparison with the reactions of the control animals not treated with test substance with the aid of comparison scales.
(§5) The results obtained by the above test methods using compounds of the formula I are shown in the following Table A. The example numbers given for the compounds of formula I relate to the following preparation examples.

Data set [3] is described as follows: Determination of the minimum toxic dose. The arrangement: species or system male mice. To be noted: mouse, in vivo, po, 300 mg/kg, 1440 min. The procedure:
2. Determination of the minimum toxic dose.
Maximum doses of 300 mg/kg of the test substance were administered orally to male mice weighing 20-25 g. The animals were observed carefully for 3 hours for toxicity symptoms. In addition, all symptoms and deaths over a period of 24 hours after administration were recorded. Associated symptoms were also observed and recorded. If death or severe toxic symptoms were observed, further mice were administered increasingly lower doses. The lowest dose which caused death or severe toxic symptoms is given as the minimum toxic dose in the following Table B.

The subject of data set [4] is Histamine-induced anaphylactoid reactions. As to the kind of experiment: Inhibition of anaphylactoid cutaneous reaction induced by histamine. To be noted: Rattus norvegicus, 1 h; rats, 2 × 10^-5 mol/kg p.o., one hour before challenge; histamine intradermal. It is filed as in vivo, rat (Sprague-Dawley). The procedure: as §1, §2
To determine the histamine-induced anaphylactoid skin reaction, the animals were injected intradermally in the flank opposite to the antiserum administration with 50 μl of a physiological saline solution containing 0.8 mg/ml of histamine directly before the i.v. injection of the solution containing the ovalbumin and the blue dye.
as §3, §4, §5

Data set [5] deals with T1, 5-lipoxygenase (Mus musculus, UniProt P48999).
T1 construct: A cell suspension containing peritoneal cells of male mice 8-10 weeks old was obtained; endogenous in cells; host or cells: mouse peritoneal macrophages (male mice 8-10 weeks old), zymosan-stimulated
T1 sequence (P48999 1-674): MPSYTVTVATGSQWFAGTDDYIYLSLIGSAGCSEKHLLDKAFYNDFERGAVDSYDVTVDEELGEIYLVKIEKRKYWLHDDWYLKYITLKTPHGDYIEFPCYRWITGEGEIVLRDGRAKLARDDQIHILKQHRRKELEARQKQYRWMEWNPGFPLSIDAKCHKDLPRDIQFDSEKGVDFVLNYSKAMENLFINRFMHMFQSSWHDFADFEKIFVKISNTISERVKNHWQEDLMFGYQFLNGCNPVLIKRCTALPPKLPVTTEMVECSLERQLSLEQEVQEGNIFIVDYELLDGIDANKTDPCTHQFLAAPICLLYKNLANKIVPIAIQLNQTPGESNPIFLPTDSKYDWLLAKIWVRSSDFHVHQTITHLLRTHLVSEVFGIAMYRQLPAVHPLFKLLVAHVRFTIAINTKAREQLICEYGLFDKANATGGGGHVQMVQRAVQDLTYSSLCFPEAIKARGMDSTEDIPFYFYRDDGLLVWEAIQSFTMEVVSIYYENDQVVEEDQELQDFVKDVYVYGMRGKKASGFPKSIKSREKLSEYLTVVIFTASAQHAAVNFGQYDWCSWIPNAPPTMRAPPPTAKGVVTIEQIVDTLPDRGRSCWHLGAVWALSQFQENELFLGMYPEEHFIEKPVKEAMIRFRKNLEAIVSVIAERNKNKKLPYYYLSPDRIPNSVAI
As to the kind of experiment: 5-lipoxygenase inhibition: release of LTC4 from zymosan-stimulated mouse peritoneal macrophage cells. To be noted: 10^-5 mol/l, read-out: In vitro % inhibition effect on the release of LTC4. It counts as cell-based. The text has this: (§6) 5. In vitro determination of cyclooxygenase inhibition and 5-lipoxygenase inhibition.
(§7) After activation of the cell, arachidonic acid contained in cell membranes is metabolized in two ways. Leukotrienes, inter alia leukotriene C4, are formed under the action of the enzyme 5-lipoxygenase (5-LO), and prostanoids are formed under the action of the enzyme cyclooxygenase (CO). In in vitro systems, the metabolites are secreted from the cell.
(§8) To investigate the cyclooxygenase-inhibiting and the 5-lipoxygenase-inhibiting properties, the inhibitory effect of the test substances on the biosynthesis of the arachidonic acid derivatives leukotriene C4 (LTC4) and 6-ketoprostaglandin F1 α (6-keto-PGF1 α) is determined in vitro on mouse peritoneal macrophage cells. This was accomplished by determining the LTC4 and 6-keto-PGF1 α contents in a culture medium of mouse peritoneal macrophage cells by zymosan stimulation as described by Scott et al. (J. Exp. Med. 152 (1980), 324-335) and by Fradin et al. (Prostaglandins, 33 (1987), 579-589).
(§9) A cell suspension containing peritoneal cells of male mice 8-10 weeks old was obtained in a known manner. A commercially available cell culture solution (RPMI 1640 from Messrs. Gibco) was used to which heparin (I0 international units/ml) and antibiotics were added according to the recipe of Bonney et al. (Biochem. J. 176 (1978) 422-433). The cell suspension was adjusted to a cell concentration of 10^6 cells per ml and distributed uniformly on titer plates containing […] (wells). These were kept for two hours in a humidified incubator filled with air enriched with 7% CO2. Cells not adhering to the titer cell walls were then removed by washing. The remaining macrophage cells adhering to the walls were incubated for about 12 hours in a suspension medium to which 0.1% bovine serum albumin (BSA) were added. The suspension medium was then replaced by a Hanks balanced salt solution (HBSS) containing 10 mM Hepes (hydroxyethyl-piperazinoethanesulfonic acid), to which a 0.1% strength solution of the test substances in aqueous, 1% strength dimethylformamide or only the solvent had been added. After 15 minutes the arachidonic acid metabolism was stimulated by adding 10 particles of zymosan (=glycoproteinmixture, isolated from cell walls of beer yeast, Saccharomyces cerevisiae, manufactured by Sigma Chemical Co., Munich) per titer cell. After 2 hours, samples of each of the supernatant liquids were investigated for their 6-keto-PGF1 α and LTC4 contents by means of an enzyme immunoassay (EIA) carried out by the method of Pradelles et al. (Analytical Chem. 57 (1985), 1170-1173). The determination of LTC4 and the determination of 6-keto-PGF1 α were each carried out in comparison with a comparative scale on suitable dilutions of the samples (1:50 to 1:250 for the LTC4 determination and 1:250 to 1:1250 for the 6-keto-PGF1 α determination). To determine the inhibitory effect of a 10^-5 molar concentration of the compounds, the amount of reference eicosanoids was determined and the inhibitory effect was calculated from this in % inhibition compared to the measurements of the zymosan controls.

The target of data set [6] is T2, cyclooxygenase (Mus musculus, UniProt P22437).
T2 construct: A cell suspension containing peritoneal cells of male mice 8-10 weeks old was obtained; endogenous in cells; host or cells: mouse peritoneal macrophages (male mice 8-10 weeks old), zymosan-stimulated
T2 sequence (P22437 27-602): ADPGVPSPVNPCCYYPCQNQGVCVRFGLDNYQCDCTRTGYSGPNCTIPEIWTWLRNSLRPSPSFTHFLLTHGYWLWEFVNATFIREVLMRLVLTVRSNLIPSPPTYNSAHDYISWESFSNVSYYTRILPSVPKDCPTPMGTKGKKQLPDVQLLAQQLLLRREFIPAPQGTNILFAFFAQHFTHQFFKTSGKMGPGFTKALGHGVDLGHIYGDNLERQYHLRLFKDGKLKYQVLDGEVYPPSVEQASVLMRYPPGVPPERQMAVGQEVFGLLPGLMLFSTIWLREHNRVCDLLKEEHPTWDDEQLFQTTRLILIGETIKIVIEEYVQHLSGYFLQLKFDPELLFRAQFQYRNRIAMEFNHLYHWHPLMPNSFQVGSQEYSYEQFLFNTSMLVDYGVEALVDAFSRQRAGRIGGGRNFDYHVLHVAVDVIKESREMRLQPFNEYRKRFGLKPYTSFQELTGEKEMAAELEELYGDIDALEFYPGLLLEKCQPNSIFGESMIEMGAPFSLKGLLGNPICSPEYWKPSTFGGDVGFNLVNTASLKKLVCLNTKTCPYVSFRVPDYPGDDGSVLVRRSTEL
Put plainly: Cyclooxygenase inhibition: release of 6-keto-PGF1 α from zymosan-stimulated mouse peritoneal macrophage cells. It is filed as cell-based. Conditions: 10^-5 mol/l, read-out: In vitro % inhibition effect on the release of 6-keto-PGF1 α.
Source text: as §6, §7, §8, §9

As for `Cc1ccnc(N2CCN(CCc3c(-c4ccccc4)n4c5c(cccc35)CCC4)CC2)c1` [Example 40], testing at 10 µM in data set [1] gave an inhibition of 100%. Also, the inhibition in vivo at 20 µmol/kg is 70% in data set [2] and 43% in data set [4]. Further, in data set [3], the “Minimum toxic dose (lowest dose which caused death or severe toxic symptoms)” value was found to be 300 mg/kg.

The compound `Cc1c(CCN2CCC(C(=O)c3ccccc3)CC2)c2cccc3c2n1CCC3C` (stereo not drawn) [Example 56] registered an inhibition at 10 µM in data set [1] of 42%. Further, the inhibition in vivo at 20 µmol/kg in data set [2] worked out at 80%; in data set [4], 50%. The “Minimum toxic dose (lowest dose which caused death or severe toxic symptoms)” value in data set [3] is 300 mg/kg.

Regarding `Cc1ccnc(N2CCN(CCc3c(C)n4c5c(cc(C(=O)c6ccc(Cl)cc6)cc35)CCC4)CC2)c1` [Example 82], the inhibition at 10 µM was found to be 9% in data set [5] and 58% in data set [6].

For the compound `Cc1ccnc(N2CCN(CCc3c(C)n4c5c(cc(CC6CCCCC6)cc35)CCC4)CC2)c1` [Example 84], the inhibition at 10 µM in data set [5] amounted to 20%; in data set [6] it was 46%.
